Values quoted from earlier work, collected in patent US9039924B2 (priority 2010, dated 2015).

System: rat
Conditions: in vivo; for LD50 values below 1000 or toxic: po

NC(N)=O [CO(NH2)2, urea]
LD50 (oral-rat; mg/kg): 8471 mg/kg

N#C[O-].[K+] [KCNO, potassium cyanate]
LD50 values below 1000 or toxic: below 1000

O=N[O-].[K+] [KNO2, potassium nitrite]
LD50 values below 1000 or toxic: below 1000

O.O.O.O.O.O=S([O-])([O-])=S.[Na+].[Na+] [Na2S2O3•5H2O, sodium thiosulfate pentahydrate]
LD50 (oral-rat; mg/kg): 2300 mg/kg

N#CO [NaCNO, sodium cyanate]
LD50 (oral-rat; mg/kg): 5 mg/kg
LD50 values below 1000 or toxic: below 1000

O=NO [NaNO2, sodium nitrite]
LD50 values below 1000 or toxic: below 1000

ammonium thiocyanide [NH4CNS]
LD50 (oral-rat; mg/kg): 954 mg/kg
LD50 values below 1000 or toxic: below 1000

potassium bromide [KBr]
LD50 (oral-rat; mg/kg): 3070 mg/kg

potassium chloride [KCl]
LD50 (oral-rat; mg/kg): 2600 mg/kg

potassium fluoride dihydrate [KF•2(H2O)]
LD50 (oral-rat; mg/kg): 245 mg/kg
LD50 values below 1000 or toxic: below 1000

potassium iodide [KI]
LD50 (oral-rat; mg/kg): 1862 mg/kg

potassium thiosulfate pentahydrate [K2S2O3•5H2O]
LD50 (oral-rat; mg/kg): 802 mg/kg
LD50 values below 1000 or toxic: below 1000
